Reference: patent publication US20080287514A1, “Topical compositions containing metronidazole” (priority 2007, published 2008)

Key:
[1] = Physical stability test (crystal formation or precipitation after 24 hours at room temperature and 7 days at about 4 °C); assay type: physicochemical; settings: for Results from stability test: aqueous solution, 7 days at about 4 °C
Procedure: The solubility enhancing effect of the combination of niacinamide and hydroxyalkyl urea in increasing the solubility of metronidazole in the aqueous compositions is evaluated by physical stability of the prepared compositions.
Therefore, the compositions in accordance with the present invention are subject to a physical stability test. The protocol for the stability test is as follows: metronidazole and the solubility enhancing agents are combined with water either at room temperature or elevated temperature while stirring until dissolved. The solutions are permitted to cool to room temperature. Customary auxiliaries and additives may be added to the aqueous solutions containing solubilized metronidazole and solubility enhancing agents. The solutions may be gelled by using the suitable gelling agents. The compositions both in gel or solution form are then packaged in clear glass vials and sealed. The vials are kept at room temperature for 24 hours and monitored for crystal formation or precipitation. After 24 hours, the vials are placed in a refrigerator maintained at a temperature of about 4° C. for 7 days. After 7 days, the vials are removed from the refrigerator. Evidence of crystal formation or precipitation in the compositions is examined.
(§1) Each formulation was prepared by combining niacinamide and metronidazole in water (q.s 100%). The mixture was kept at a temperature of about 45° C. while stirring until dissolved. The solutions were permitted to cool to room temperature, packaged and sealed in glass vials. The stability tests described in Example 1 were performed and the test results were recorded.
as §1, with “N-2-hydroxyethyl urea” for “niacinamide”, “(q.s.” for “(q.s”
as §1, with “N-2-hydroxyethyl urea, niacinamide,” for “niacinamide”, “(q.s.” for “(q.s”, “100%). N-2-hydroxyethyl urea is available from a number of commercial sources, for example, Aldrich Chemical Company (Milwaukee, Wis.).” for “100%).”, “kept either at room temperature or” for “kept”

[2] = at 25 °C; cited from earlier work

Cc1ncc([N+](=O)[O-])n1CCO [Metronidazole, 1-(2-hydroxyethyl)-2-methyl-5-nitroimidazole]
Results from stability test ([1]; 1.0% metronidazole, 1.0% N-2-hydroxyethyl urea, 3.0% niacinamide): Crystals | Results from stability test ([1]; 1.0% metronidazole, 1.0% N-2-hydroxyethyl urea, 4.0% niacinamide): Clear | Results from stability test ([1]; 1.0% metronidazole, 2% niacinamide): Crystals formed | Results from stability test ([1]; 1.0% metronidazole, 3.0% N-2-hydroxyethyl urea, 3.0% niacinamide): Clear | Results from stability test ([1]; 1.0% metronidazole, 3% niacinamide): Crystals formed | Results from stability test ([1]; 1.0% metronidazole, 4.0% N-2-hydroxyethyl urea, 1.0% niacinamide): Crystals | Results from stability test ([1]; 1.0% metronidazole, 4% niacinamide): Crystals formed | Results from stability test ([1]; 1.0% metronidazole, 5.0% N-2-hydroxyethyl urea, 1.0% niacinamide): Clear | Results from stability test ([1]; 1.0% metronidazole, 5.0% N-2-hydroxyethyl urea, 1.0% niacinamide, listed as metronidazole): stable | Results from stability test ([1]; 1.0% metronidazole, 5.0% N-2-hydroxyethyl urea, 2.0% niacinamide): Clear | Results from stability test ([1]; 1.0% metronidazole, 5% niacinamide): Clear | Results from stability test ([1]; 1.0% metronidazole, 13% N-2-hydroxyethyl urea): Crystals formed | Results from stability test ([1]; 1.0% metronidazole, 14% N-2-hydroxyethyl urea): Crystals formed | Results from stability test ([1]; 1.0% metronidazole, 15% N-2-hydroxyethyl urea): Crystals formed | Results from stability test ([1]; 1.0% metronidazole, 16% N-2-hydroxyethyl urea): Clear | Results from stability test ([1]; 1.2% metronidazole, 10.0% N-2-hydroxyethyl urea, 2.0% niacinamide): Clear

NC(=O)NCCO [N-2-hydroxyethyl urea]
concentration of N-2-hydroxyethyl urea required to obtain a stable aqueous solution of 1.0% metronidazole ([1]; N-2-hydroxyethyl urea as the only solubility enhancing agent): about 16% | concentration of N-2-hydroxyethyl urea needed to obtain a stable aqueous solution of 1.0% metronidazole ([1]; concentration of niacinamide is 1.0%): ≥ 5.0%

NC(=O)c1cccnc1 [niacinamide]
water solubility limit [2]: about 50 % by weight | concentration of niacinamide needed to obtain a stable aqueous solution of 1.0% metronidazole ([1]; concentration of N-2-hydroxyethyl urea is 1.0%): about 4.0% | N-2-hydroxyethyl urea functionally equivalent to 1% niacinamide in inducing the solubility enhancing effect ([1]; from Examples 2 and 3, 1.0% metronidazole): about 3.2% | concentration of niacinamide required to obtain a stable aqueous solution of 1.0% metronidazole ([1]; niacinamide as the only solubility enhancing agent): about 5%
